{"source": "paper PMC4684500", "about": "“Diversity, Antimicrobial Action and Structure-Activity Relationship of Buffalo Cathelicidins” (PLoS ONE, 2015)", "key": {"[1]": {"test_system": "Stahylococcus aureus ATCC-29213", "assay_type": "cell-based, Staphylococcus aureus", "conditions": "ATCC-29213, 24 h", "method": "(§1) The buCATHL4 peptides were synthesized by G L Biochem (Shanghai, China). Purity and molecular mass of the peptides were provided by the vendors using HPLC and mass spectrometry, respectively. The purity of all peptides were >98%. Minimum inhibitory concentrations (MIC) of buCATHL4s against the pathogenic microorganisms were tested by broth micro-dilution technique. Briefly, bacteria were grown in Mueller Hinton broth (Sigma-Aldrich, MO, USA) at 37°C. The OD of early-log phase cultures were adjusted to 0.08–0.1 and further diluted (1:200) to keep inoculums concentration nearly 10^6 colony forming units (CFU)/ml. Diluted peptides (10 μl) were mixed with equi-volume solution A (0.02% acetic acid containing 0.4% BSA) and were serially diluted in the solution B (0.01% acetic acid containing 0.2% BSA). Bacterial inoculums (90 μl) were mixed with serially diluted peptides and incubated at 37°C for 24 h without shaking. […] All peptides were tested in triplicate. For time kill kinetics experiments, peptides (1×, 2× and 4× MIC) were added to bacterial suspension of Staphylococcus aureus, Salmonella enterica and Pseudomonas aeruginosa, as described in the MIC determination method. Aliquots of representative wells were diluted and plated on Muller Hinton agar plates at 0, 1, 4, 12 and 24 h intervals. Water with 0.01% acetic acid and ampicillin (100 mg/ml) were taken as […] controls, respectively. The results were represented as log CFU/ml."}, "[2]": {"test_system": "Stahylococcus aureus NCDC-0111", "assay_type": "cell-based, Staphylococcus aureus", "conditions": "24 h", "method": "as §1"}, "[3]": {"test_system": "Acinetobacter johnsonii NCDC-0072", "assay_type": "cell-based", "conditions": "24 h", "method": "as §1"}, "[4]": {"test_system": "Bacillus cereus NCDC-0240", "assay_type": "cell-based", "conditions": "NCDC-0240, 24 h", "method": "as §1"}, "[5]": {"test_system": "Escherichia coli MTCC-0723", "assay_type": "cell-based", "conditions": "MTCC-0723, 24 h", "method": "as §1"}, "[6]": {"test_system": "Listeria monocytogenes ATCC-19111", "assay_type": "cell-based", "conditions": "ATCC-19111, 24 h", "method": "as §1"}, "[7]": {"test_system": "Pseudomonas aeruginosa ATCC-27853", "assay_type": "cell-based", "conditions": "ATCC-27853, 24 h", "method": "as §1"}, "[8]": {"test_system": "Pseudomonas aeruginosa NCDC-0105", "assay_type": "cell-based", "conditions": "NCDC-0105, 24 h", "method": "as §1"}, "[9]": {"test_system": "Salmonella typhimurium ATCC-14028", "assay_type": "cell-based", "conditions": "ATCC-14028, 24 h", "method": "as §1"}, "S. aureus [10]": {"test_system": "S. aureus", "experiment": "Time kill kinetics", "assay_type": "cell-based, Staphylococcus aureus", "method": "as §1"}, "[11]": {"test_system": "S. aureus, S. typhimurium and P. aeruginosa", "experiment": "Time kill kinetics, three pathogens", "assay_type": "cell-based", "conditions": "peptide at 4× MIC", "method": "as §1"}, "S. aureus biofilm": {"test_system": "S. aureus biofilm", "experiment": "Biofilm assay (crystal violet)", "assay_type": "cell-based, Staphylococcus aureus", "conditions": "peptide at 1× and 2× MIC, 24 h 37°C, crystal violet A570", "method": "(§2) The efficacy of peptides against biofilms of S. aureus and P. aeruginosa was determined using previously described method. Overnight grown bacterial cultures were diluted (1:100) and 200 μl suspensions were mixed with each peptide (1× and 2× MIC) in a 96 well plate and incubated for 24 h at 37°C. Biofilms were fixed with paraformadehyde solution, cultures were decanted and 0.1% crystal violet solution was added to stain the film. The plate was rinsed thrice with water and air-dried. The stain was dissolved by 100 μl of acetic acid (30%) and absorbance was measured at 570 nm. The experiment was performed in triplicate, 30% acetic acid was taken as a blank."}, "P. aeruginosa biofilm": {"test_system": "P. aeruginosa biofilm", "experiment": "Biofilm assay (crystal violet)", "assay_type": "cell-based, Pseudomonas aeruginosa", "conditions": "peptide at 1× and 2× MIC, 24 h 37°C, crystal violet A570", "method": "as §2"}, "S. aureus [12]": {"test_system": "S. aureus", "experiment": "LIVE/DEAD BacLight membrane permeability assay", "assay_type": "cell-based, Staphylococcus aureus", "conditions": "peptide 200μM, log phase culture, SYTO9/PI", "method": "(§3) The damage to bacterial membrane following addition of peptide was assessed by BacLight kit (Life Technologies, CA, USA). Aliquots of S. aureus, S. enterica and P. aeruginosa cultures from exponential (shaking incubation for 2, 3, and 4 h, respectively) and stationary phases (overnight incubation) were harvested by centrifugation (5000 g for 10 min) and diluted in PBS. Peptides (200μM) were added to bacterial suspension and 50 μl aliquots were removed immediately or after 1 h incubation. Equi-volume mixtures of SYTO9/PI (3 μl/ml bacterial suspension) were added to these aliquots and fluorescent micrographs of stained bacteria were taken at 1000×magnification in a microscope (Olympus BX51 fitted with DP71 camera) with a fluorescence illuminator system."}, "S. typhimurium [13]": {"test_system": "S. typhimurium", "experiment": "LIVE/DEAD BacLight membrane permeability assay", "assay_type": "cell-based, Salmonella typhimurium", "conditions": "peptide 200μM, SYTO9/PI", "method": "as §3"}, "S. aureus [14]": {"test_system": "S. aureus", "experiment": "Scanning and transmission electron microscopy", "assay_type": "cell-based, Staphylococcus aureus", "conditions": "lower concentrations (≤2× MIC)", "method": "(§4) Early log phase cultures of S. aureus and S. enterica were subjected to different concentration of peptides and incubated at 37°C. The bacterial pellets after centrifugation (5000 g for 10 min) were washed with 0.1M cacodylate buffer (pH 7.2) and were fixed in 2.5% gluteraldehyde at 4°C for 2 h. For scanning electron microscopy, bacteria were dehydrated using gradient series of ethanol wash (30, 50, 70, 90 and absolute). The samples were air-dried overnight, gold coated (Eiko IB-3 ion coater), and viewed in a Zeiss EVO 18 Special Edition SEM. For transmission electron microscopy, fixed samples were adhered to hexagonal PELCO® Grids (Ted Pella, Inc. USA), washed once with Mili-Q water and stained with uranyl acetate (2%) buffer. Samples were viewed in a JEM 1011 (Jeol, Japan) microscope."}, "S. typhimurium [15]": {"test_system": "S. typhimurium", "experiment": "Scanning and transmission electron microscopy", "assay_type": "cell-based, Salmonella typhimurium", "method": "as §4"}, "PBMCs": {"test_system": "PBMCs", "experiment": "In vitro cytokine response, qRT-PCR", "assay_type": "cell-based, buffalo", "conditions": "peptide 500 nM, 1 h, qRT-PCR vs PBS control, p<0.05", "method": "For measurement of in vitro cytokine response, PBMCs were isolated from blood and maintained in serum-free RPMI-1640 (Sigma Aldrich, MO, USA) medium. Cells were exposed to peptides (500 nM), muramyl-di-peptide (Invivogen, San Diego, CA) [MDP (10 μg/ml) as positive control] and PBS (negative control). Cells were incubated for 1 h and relative mRNA abundance of cytokines was quantified by qRT-PCR using RPS-18 gene as housekeeping control. Total RNA, extracted by TRIzol (Ambion, CA, USA) method was used for cDNA preparation (Superscript III cDNA synthesis kit; Invitrogen, CA, USA).qRT-PCR reactions were performed in a Light Cycler® 480 II machine (Roche Diagnostics, USA). Each reaction consisted of 2 μl cDNA template, 5 μl of 2× SYBR® Green PCR Master Mix (Thermo Scientific, PA, USA), 0.25 μl each of forward and reverse primers (10 pmol) and nuclease free water for a final volume of 10 μl. Each sample was run in duplicate."}}, "note": "Where no end group is shown, it is not given here.", "data": [{"sequence": "RIRFPWPWRWPWWRRVRG [buCATHL4C]", "values": [{"measurement": "MIC", "setting": "[1]", "value": 0.2, "unit": "µM"}, {"measurement": "MIC", "setting": "[2]", "value": 0.4, "unit": "µM"}, {"measurement": "MIC", "setting": "[3]", "value": 6, "unit": "µM"}, {"measurement": "MIC", "setting": "[4]", "value": 0.8, "unit": "µM"}, {"measurement": "MIC", "setting": "[5]", "value": 12.5, "unit": "µM"}, {"measurement": "MIC", "setting": "[6]", "value": 1.5, "unit": "µM"}, {"measurement": "MIC", "setting": "[7]", "value": 0.2, "unit": "µM"}, {"measurement": "MIC", "setting": "[8]", "value": 6, "unit": "µM"}, {"measurement": "MIC", "setting": "[9]", "value": 3, "unit": "µM"}, {"measurement": "Growth inhibition of S. aureus in time kill kinetics", "setting": "S. aureus [10]; peptide at 2× MIC, plating at 0, 1, 4, 12, 24 h", "value": "complete growth inhibition"}, {"measurement": "Time to complete elimination of S. aureus", "setting": "S. aureus [10]; peptide at 4× MIC, time kill kinetics", "value": 4, "unit": "h"}, {"measurement": "Killing rate compared with indolicidin and ampicillin", "setting": "[11]", "value": "comparatively better killing rate"}, {"measurement": "Reduction in biofilm growth of S. aureus", "setting": "S. aureus biofilm", "value": "substantial"}, {"measurement": "Reduction in biofilm growth of P. aeruginosa", "setting": "P. aeruginosa biofilm", "value": "substantial"}, {"measurement": "Clumping (agglutination) of S. aureus after peptide addition", "setting": "S. aureus [12]", "value": "immediate clumping"}, {"measurement": "Clumping (agglutination) of S. typhimurium after peptide addition", "setting": "S. typhimurium [13]; log phase culture", "value": "immediate clumping"}, {"measurement": "Membrane permeability of latent (stationary phase) S. typhimurium", "setting": "S. typhimurium [13]; stationary phase culture, proportion of cells affected comparatively less", "value": "affected membrane permeability"}, {"measurement": "Morphological change of S. aureus cells (SEM/TEM)", "setting": "S. aureus [14]", "value": "swelling and blebing"}, {"measurement": "Formation of pore like structures over the membrane (SEM/TEM)", "setting": "S. typhimurium [15]; Fig 5H and 5L, S. typhimurium, with extensive wrinkling of membrane", "value": "Formation of pore like structures"}, {"measurement": "Formation of negative curvature on membrane (SEM/TEM)", "setting": "S. typhimurium [15]; more evident with S. typhimurium", "value": "Formation of negative curvature"}, {"measurement": "TNF-α mRNA response", "setting": "PBMCs", "value": "significantly higher"}]}]}
